Values quoted from earlier work, collected in patent publication US20140112913A1, “METHODS OF PROGNOSING AND ADMINISTERING TREATMENT FOR INFLAMMATORY DISORDERS” (Genqual Corporation, priority 2011, published 2014).

Conditions: treatment of rheumatoid arthritis; patients who failed adequate treatment with other approved therapies

Substance: Actemra: anti-IL-6 humanized mAb against soluble and cellular IL-6 receptor
- failure rate due to side effects or lack of efficacy: around one-third
